The values that follow come from ChEMBL document CHEMBL5120800, “Lathyrane and Jatrophane Diterpenoids from Euphorbia helioscopia Evaluated for Cytotoxicity against a Paclitaxel-Resistant A549 Human Lung Cancer Cell Line” (J Nat Prod, 2022).

The nature of assay [1]: Cytotoxicity against human A549/PTX cells assessed as inhibition of cell growth incubated for 72 hrs by MTT assay. The assay is classed as functional, cell-based. A general note: Tetrazolium dyes change colour on reduction, which living cells bring about.
Assay [2] relates to A549. Briefly: Cytotoxicity against human A549 cells assessed as inhibition of cell growth incubated for 72 hrs by MTT assay. Particulars: A549, 72 h. The assay is classed as functional, cell-based.

For orientation: pIC50 means the IC50 on a negative log10 scale, so that one unit is a factor of ten.

pIC50: −log10 of the molar value.

As for `CC(=O)O[C@]12C[C@@H](C)[C@H](OC(=O)c3ccccc3)[C@@H]1/C=C(\C)[C@H](OC(=O)c1ccccc1)CC(=O)C(C)(C)/C=C/[C@@H](C)C2=O`, the pIC50 in assay [1] was 5.14; in assay [2], under 5.00.
With `CC(=O)O[C@H]1C(=O)[C@@]2(C)[C@H]([C@H](OC(=O)c3ccccc3)[C@]3(O)C[C@H](OC(=O)[C@H](O)[C@@H](NC(=O)c4ccccc4)c4ccccc4)C(C)=C1C3(C)C)[C@]1(OC(C)=O)CO[C@@H]1C[C@@H]2O` [PACLITAXEL], in assay [2], the pIC50 is 7.17.
As to `CC(=O)O[C@@H]1[C@H](C)/C=C/C(C)(C)C(=O)C[C@@H](OC(=O)c2cccnc2)/C(C)=C/[C@H]2[C@@H](OC(=O)c3ccccc3)[C@H](C)C[C@]12OC(C)=O`, the pIC50 in assay [1] was 5.02; in assay [2], under 5.00.
For `CC(=O)O[C@@H]1[C@H](C)/C=C/C(C)(C)C(=O)C[C@@H](OC(=O)c2ccccc2)/C(C)=C/[C@H]2[C@@H](OC(=O)c3ccccc3)[C@H](C)C[C@]12OC(C)=O` [EUPHOSCOPIN C] the same measures were 5.16 and under 5.00.
